Values joined by “and” are separate entries in the source; they are usually repeats but may differ in a detail not shown here. Identical values can stand only once.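 Tested at 5 concentrations; 48 h exposure; 96-well plates; endpoints linearly interpolated, else capped at highest concentration. GI50 = concentration required for 50% inhibition of growth. TGI is the concentration that stops growth completely.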
Columns and labels:
Assay in all cases: growth of human tumour cells (NCI), 48 h; in the data active = GI50 below about 0.43 µM; inactive = the rest
[1] = test system: OVCAR-4 ovarian
[2] = test system: MOLT-4 leukemia
[3] = test system: NCI-H522 lung
[4] = test system: A498 renal
[5] = test system: HCT-116 colon
[6] = test system: MDA-MB-231 breast
[7] = test system: SF-268 CNS
[8] = test system: SNB-75 CNS
[9] = test system: SN12C renal
[10] = test system: K-562 leukemia
[11] = test system: LOX IMVI melanoma
[12] = test system: BT-549 breast
[13] = test system: NCI-H460 lung
[14] = test system: M14 melanoma
[15] = test system: MDA-MB-435
[16] = test system: CCRF-CEM leukemia
[17] = test system: OVCAR-5 ovarian
[18] = test system: HL-60(TB) leukemia
[19] = test system: PC-3 prostate
[20] = test system: SW-620 colon
[21] = test system: SF-539 CNS
[22] = test system: COLO 205 colon
[23] = test system: SK-MEL-28 melanoma
[24] = test system: HOP-62 NSCLC
[25] = test system: RPMI-8226 leukemia
[26] = test system: NCI/ADR-RES ovarian
[27] = test system: HS 578T breast
[28] = test system: UACC-62 melanoma
[29] = test system: SNB-19 CNS
[30] = test system: IGROV1 ovarian
[31] = test system: HCT-15 colon
[32] = test system: CAKI-1 renal
[33] = test system: DU-145 prostate
[34] = test system: TK-10 renal
[35] = test system: RXF 393 renal
[36] = test system: SK-OV-3 ovarian
[37] = test system: UO-31 renal
[38] = test system: U251 CNS
[39] = test system: HOP-92 NSCLC
[40] = test system: HT29 colon
[41] = test system: MCF7 breast
[42] = test system: NCI-H23 lung
[43] = test system: OVCAR-8 ovarian
[44] = test system: T-47D breast
[45] = test system: HCC-2998 colon
[46] = test system: EKVX NSCLC
[47] = test system: KM12 colon
[48] = test system: MALME-3M melanoma
[49] = test system: 786-0 renal
[50] = test system: ACHN renal
[51] = test system: UACC-257 melanoma
[52] = test system: OVCAR-3 ovarian
[53] = test system: A549 NSCLC
[54] = test system: SK-MEL-5 melanoma
[55] = test system: SF-295 CNS

C/C=C/C1=CN2C(=O)c3cc(OC4OC(C)C(NC)C(C)(O)C4O)c(C)cc3N=C[C@@H]2C1 (stereo partly specified)
137 nM: TGI [21]
39.6 nM: TGI [48]
11100 nM: TGI [9]
50.8 nM: TGI [23]
282 nM: TGI [42]
1580 nM: TGI [33]
31.2 nM: TGI [14]
11500 nM: TGI [31]
49.3 nM: TGI [49]
10400 nM: TGI [17]
70.3 nM: TGI [24]
31.5 nM: TGI [35]
735 nM: TGI [26]
59.6 nM: TGI [37]
> 100000 nM: TGI [39]
active: GI50 [1] 25.8 nM | GI50 [2] 12.4 nM | GI50 [3] 7.62 nM | GI50 [4] 17.3 nM | GI50 [6] 35.7 nM | GI50 [7] 21.6 nM | GI50 [8] 15.9 nM | GI50 [9] 33 nM | GI50 [10] 25.8 nM | GI50 [11] 13.3 nM | GI50 [12] 19.1 nM | GI50 [13] 23.7 nM | GI50 [14] 14.1 nM | GI50 [15] 15.8 nM | GI50 [16] 13 nM | GI50 [17] 43.1 nM | GI50 [18] 21.1 nM | GI50 [19] 44.1 nM | GI50 [20] 22.4 nM | GI50 [21] 18.3 nM | GI50 [22] 17.5 nM | GI50 [23] 22.5 nM | GI50 [24] 22.2 nM | GI50 [25] 24.6 nM | GI50 [27] 53.9 nM | GI50 [28] 16.7 nM | GI50 [29] 30.7 nM | GI50 [30] 30 nM | GI50 [31] 174 nM | GI50 [32] 39.1 nM | GI50 [33] 38.2 nM | GI50 [34] 26.4 nM | GI50 [35] 14 nM | GI50 [37] 24 nM | GI50 [38] 14.8 nM | GI50 [39] 68.7 nM | GI50 [40] 24.2 nM | GI50 [41] 8.47 nM | GI50 [42] 19.7 nM | GI50 [43] 17.9 nM | GI50 [44] 24.7 nM | GI50 [45] 58.5 nM | GI50 [46] 242 nM | GI50 [47] 34.5 nM | GI50 [48] 20.1 nM | GI50 [49] 22.6 nM
11900 nM: TGI [36] | TGI [41]
101 nM: TGI [18]
31.9 nM: TGI [4]
55.5 nM: TGI [8]
68.3 nM: TGI [34]
37.2 nM: TGI [7]
245 nM and 130 nM: TGI [38]
11600 nM: TGI [5]
17100 nM: TGI [6]
30.1 nM: TGI [3]
178 nM: TGI [2]
20.3 nM: TGI [46]
94.7 nM: TGI [25]
544 nM: TGI [47]
336 nM: TGI [45]
36.1 nM: TGI [28]
41.1 nM: TGI [22]
26800 nM: TGI [19]
66 nM: TGI [40]
40.8 nM: TGI [12]
41.5 nM: TGI [11]
87 nM: TGI [43]
12400 nM: TGI [29]
32 nM: TGI [15]

COc1ccc(-c2nc3c(-c4ccccc4)nc(-c4ccccc4)cn3c2-c2ccc(OC)cc2)cc1
52600 nM: TGI [18]
> 100000 nM: TGI [1] | TGI [4] | TGI [5] | TGI [50] | TGI [6] | TGI [7] | TGI [8] | TGI [9] | TGI [10] | TGI [11] | TGI [51] | TGI [12] | TGI [13] | TGI [14] | TGI [15] | TGI [17] | TGI [52] | TGI [19] | TGI [20] | TGI [21] | TGI [22] | TGI [23] | TGI [24] | TGI [25] | TGI [26] | TGI [27] | TGI [28] | TGI [29] | TGI [31] | TGI [32] | TGI [33] | TGI [34] | TGI [53] | TGI [35] | TGI [36] | TGI [38] | TGI [39] | TGI [54] | TGI [40] | TGI [41] | TGI [55] | TGI [42] | TGI [43] | TGI [44] | TGI [45] | TGI [46] | TGI [47] | TGI [48] | TGI [49]
inactive: GI50 [1] > 100000 nM | GI50 [4] > 100000 nM | GI50 [5] > 100000 nM | GI50 [50] > 100000 nM | GI50 [6] 68500 nM | GI50 [7] > 100000 nM | GI50 [8] 26800 nM | GI50 [9] > 100000 nM | GI50 [10] > 100000 nM | GI50 [11] > 100000 nM | GI50 [51] > 100000 nM | GI50 [12] > 100000 nM | GI50 [13] > 100000 nM | GI50 [14] > 100000 nM | GI50 [15] > 100000 nM | GI50 [17] > 100000 nM | GI50 [52] > 100000 nM | GI50 [18] 3280 nM | GI50 [19] > 100000 nM | GI50 [20] > 100000 nM | GI50 [21] 88200 nM | GI50 [22] > 100000 nM | GI50 [23] > 100000 nM | GI50 [24] 40600 nM | GI50 [25] > 100000 nM | GI50 [26] > 100000 nM | GI50 [27] 30600 nM | GI50 [28] 88600 nM | GI50 [29] > 100000 nM | GI50 [31] > 100000 nM | GI50 [32] > 100000 nM | GI50 [33] > 100000 nM | GI50 [34] > 100000 nM | GI50 [53] > 100000 nM | GI50 [35] 62700 nM | GI50 [36] 82500 nM | GI50 [38] > 100000 nM | GI50 [39] 54600 nM | GI50 [54] > 100000 nM | GI50 [40] > 100000 nM | GI50 [41] > 100000 nM | GI50 [55] > 100000 nM | GI50 [42] > 100000 nM | GI50 [43] > 100000 nM | GI50 [44] > 100000 nM | GI50 [45] > 100000 nM | GI50 [46] > 100000 nM | GI50 [47] > 100000 nM | GI50 [48] > 100000 nM | GI50 [49] 49500 nM

— PubChem BioAssay (NCI)
